Values of other authors, collected in patent publication US12673027B2, “Method for the production of commercial nanoparticle and microparticle powders” (ICEUTICA PTY LTD., priority 2009, dated 2026).

Conditions: absorption by the body

Tmax: 4 to 5 h
SMILES: Cc1cnc(NC(=O)C2=C(O)c3ccccc3S(=O)(=O)N2C)s1 [Meloxicam]
